Test results from publication PMC12354831 (Cell Death Discovery, 2025).

What was measured:
[1] = test system: U251-MG cell-derived xenograft; test: Tumor growth in U251-MG cell-derived xenograft model; format: in vivo, nude mice (BALB/c-nu); settings: TMZ 40 mg/kg or CAPE 20 mg/kg every 3 days; for effect of fasting on tumor growth under drug treatment: GLUT3-overexpressing tumors, 24 h fast before each dose vs non-fasting; for effect on tumor growth vs saline groups: nude mice
Procedure: All animal studies were approved and supervised by the Ethics Committee for Animal Use and Care at Peking University. Nude mice (BALB/c-nu) were purchased and maintained as previously described. For the establishment of xenograft tumor models, 1 × 10^6 U251-MG cells (either negative vector control or overexpressing GLUT3) were injected into the bilateral axillary fossae of 4-week-old nude mice. After 7 days, when palpable tumors had formed, the mice were randomly divided into six experimental groups (n = 7 per group), and treatment was initiated immediately.
Tumor diameters were measured every 4 days using calipers. At the end of the study, all mice were sacrificed, and the tumors were carefully excised and weighed. Tumor volume was calculated using the formula V = (length*width^2)/2. Data were analyzed using statistical software to evaluate the differences among groups.

GLUT3 N413A = target: T1, GLUT3 N413A (Homo sapiens, UniProt P11169, N413A); test: TMZ uptake by U251-MG cells stably expressing GLUT3 N413A vs WT GLUT3 (LC-MS/MS); format: in vitro ADME
T1 construct: expressed in transfected cells; host or cells: U87 and U343 per methods
T1 sequence (P11169 1-496 N413A): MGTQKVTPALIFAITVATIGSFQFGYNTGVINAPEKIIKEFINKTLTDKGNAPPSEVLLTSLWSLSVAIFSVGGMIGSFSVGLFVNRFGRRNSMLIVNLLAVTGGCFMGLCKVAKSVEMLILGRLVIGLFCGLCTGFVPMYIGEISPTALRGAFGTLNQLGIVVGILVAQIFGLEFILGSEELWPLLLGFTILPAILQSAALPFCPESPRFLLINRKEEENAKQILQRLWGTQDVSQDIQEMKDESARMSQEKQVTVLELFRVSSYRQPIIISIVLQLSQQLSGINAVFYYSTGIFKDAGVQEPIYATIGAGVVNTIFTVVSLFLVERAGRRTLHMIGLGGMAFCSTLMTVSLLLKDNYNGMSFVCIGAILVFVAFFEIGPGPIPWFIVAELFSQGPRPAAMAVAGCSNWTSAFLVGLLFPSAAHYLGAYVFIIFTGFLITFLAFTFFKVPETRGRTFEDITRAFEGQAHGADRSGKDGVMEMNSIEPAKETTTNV
Procedure: A total of 6 × 10^6 cells were seeded into each well of a 6 cm Petri dish and cultured at 37 °C in a humidified atmosphere containing 5% CO2 for 8 h. The cells were then washed twice with PBS (137 mM NaCl, 2.7 mM KCl, 10 mM Na2HPO4, 1.8 mM KH2PO4, pH 7.4) and incubated in transport buffer (140 mM NaCl, 5 mM KCl, 2 mM MgCl2, 2 mM CaCl2, 30 mM Tris-HCl, pH 7.4) for 15 min at 37 °C. […] Cell supernatants were collected and stored at 4 °C for subsequent extraction. The harvested cells were washed three times with PBS and extracted with 500 µL of 80% methanol for 30 min at −80 °C. The cell lysate was then centrifuged at 14,000 × g for 5 min at 4 °C, followed by 2 min of sonication. The supernatant was transferred to a new centrifuge tube. For LC-MS/MS analysis, the cell supernatants and cell lysates were diluted at a specific ratio. A total of 100 µL of each sample was mixed with 100 µL of acetonitrile (or standard reagent) and 300 µL of internal standard solution (^2H3-TMZ 100 ng/mL and ^2H11-CAPE 20 ng/mL dissolved in acetonitrile). […] Quality control (QC) samples were prepared and analyzed alongside the experimental samples to monitor the stability and repeatability of the instrument. QC samples were inserted regularly and analyzed every 6–12 samples. Each experiment was repeated 5–6 times. […]

Row | Structure (SMILES) | effect of fasting on tumor growth under drug treatment [1] | effect on tumor growth vs saline groups [1] | reduction in drug uptake (GLUT3 N413A)
1 | CCCCCOC(=O)Nc1nc(=O)n([C@@H]2O[C@H](C)[C@@H](O)[C@H]2O)cc1F [CAPE, capecitabine] | significantly inhibited tumor growth | reducing tumor weights and volumes | –
2 | Cn1nnc2c(C(N)=O)ncn2c1=O [TMZ] | significantly inhibited tumor growth | reducing tumor weights and volumes | 40–50%
